Laboratory results: US10759813B2, “Neprilysin inhibitors” (THERAVANCE BIOPHARMA R&D IP, LLC, priority 2010, dated 2020)

molecular target: human neprilysin (EC 3.4.24.11; NEP) (Homo sapiens (Human), UniProt P08473); test: In vitro enzyme inhibition assay at human NEP (fluorogenic peptide substrate); type: biochemical; details: pKi values at human NEP, recombinant human NEP
Procedure, shortened: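 Recombinant human NEP preincubated 30 min at 37 °C with compound (10 μM down to pM), then 10 μM Mca-D-Arg-Arg-Leu-Dap-(Dnp)-OH in 50 mM HEPES pH 7.5, 100 mM NaCl, 0.01% Tween-20, 10 μM ZnSO4. Stopped after 20 min with acetic acid; fluorescence Ex320/Em405; Ki by nonlinear fit, reported as pKi.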

Sequence of human neprilysin (EC 3.4.24.11; NEP) (P08473 52-750): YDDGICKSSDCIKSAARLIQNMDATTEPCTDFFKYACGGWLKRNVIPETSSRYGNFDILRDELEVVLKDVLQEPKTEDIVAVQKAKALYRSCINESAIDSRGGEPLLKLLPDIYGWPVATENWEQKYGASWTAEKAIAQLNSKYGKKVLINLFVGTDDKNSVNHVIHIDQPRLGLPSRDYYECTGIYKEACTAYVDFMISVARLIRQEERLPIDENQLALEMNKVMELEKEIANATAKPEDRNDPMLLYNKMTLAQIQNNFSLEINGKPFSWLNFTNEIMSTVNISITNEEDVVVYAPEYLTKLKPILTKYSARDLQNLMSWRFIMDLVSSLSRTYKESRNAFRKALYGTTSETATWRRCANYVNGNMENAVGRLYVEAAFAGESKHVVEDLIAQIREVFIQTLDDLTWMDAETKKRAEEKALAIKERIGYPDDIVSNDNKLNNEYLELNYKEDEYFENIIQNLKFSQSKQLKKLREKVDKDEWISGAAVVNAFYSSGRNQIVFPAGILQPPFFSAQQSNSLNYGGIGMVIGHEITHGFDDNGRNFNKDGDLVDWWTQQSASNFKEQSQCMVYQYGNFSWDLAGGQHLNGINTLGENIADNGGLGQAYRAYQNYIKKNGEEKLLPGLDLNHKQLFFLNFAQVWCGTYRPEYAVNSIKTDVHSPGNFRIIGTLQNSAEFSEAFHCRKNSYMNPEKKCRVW

| SMILES | pKi | Ki |
| --- | --- | --- |
| O=C(N[C@H](Cc1ccc(-c2ccccc2)cc1)C[C@@H](O)C(=O)O)c1cc(-c2cc(Cl)ccc2Cl)[nH]n1 [Example 15-27, (2R,4R)-5-Biphenyl-4-yl-4-{[5-(2,5-dichlorophenyl)-1H-pyrazole-3-carbonyl]-amino}-2-hydroxy-pentanoic acid] | ≥9.0 | – |
| CC(C)c1cc(C(=O)N[C@H](Cc2ccc(-c3ccccc3)cc2)CC(O)C(=O)O)[nH]n1 (stereo partly drawn) [Example 15-73, (R)-5-Biphenyl-4-yl-2-hydroxy-4-[(5-isopropyl-2H-pyrazole-3-carbonyl)amino]-pentanoic acid] | – | 12.6 to 100 nM |
| O=C(N[C@H](Cc1ccc(-c2ccccc2)cc1)C[C@@H](O)C(=O)O)c1cc(-c2cccc(F)c2)no1 [Example 12-8, (2R,4R)-5-Biphenyl-4-yl-4-{[3-(3-fluorophenyl)-isoxazole-5-carbonyl]-amino}-2-hydroxy-pentanoic acid] | ≥9.0 | – |
| O=C(N[C@H](Cc1ccc(-c2cccc(Cl)c2)cc1)C[C@@H](O)C(=O)O)c1cc(Cl)no1 [Example 18-9, (2R,4R)-5-(3′-Chloro-biphenyl-4-yl)-4-[(3-chloro-isoxazole-5-carbonyl)-amino]-2-hydroxy-pentanoic acid] | ≥9.0 | – |
| CC(=O)Nc1cccc(-c2cc(C(=O)N[C@H](Cc3ccc(-c4ccccc4)cc3)CC(O)C(=O)O)n[nH]2)c1 (stereo partly drawn) [Example 15-31, (R)-4-{[5-(3-Acetylamino-phenyl)-1H-pyrazole-3-carbonyl]amino}-5-biphenyl-4-yl-2-hydroxypentanoic acid] | – | 1.26 to 10 nM |
| O=C(N[C@H](Cc1ccc(-c2cccc(Cl)c2)cc1)C[C@@H](O)C(=O)O)c1cc(-c2ccccc2O)on1 [Example 18-16, (2R,4R)-5-(3′-Chlorobiphenyl-4-yl)-2-hydroxy-4-{[5-(2-hydroxyphenyl)-isoxazole-3-carbonyl]-amino}-pentanoic acid] | ≥9.0 | – |
| CCOC(=O)Nc1cc(C(=O)N[C@H](Cc2ccc(-c3ccccc3)cc2)CC(O)C(=O)O)[nH]n1 (stereo partly drawn) [Example 15-93, (R)-5-Biphenyl-4-yl-4-[(5-ethoxycarbonylamino-2H-pyrazole-3-carbonyl)-amino]-2-hydroxy-pentanoic acid] | – | 12.6 to 100 nM |
| COc1cc(C(=O)N[C@H](Cc2ccc(-c3cc(Cl)ccc3F)cc2)C[C@@H](O)C(=O)O)on1 [Example 19-19, (2R,4R)-5-(5′-Chloro-2′-fluoro-biphenyl-4-yl)-2-hydroxy-4-[(3-methoxy-isoxazole-5-carbonyl)-amino]-pentanoic acid] | ≥9.0 | – |
| O=C(N[C@H](Cc1ccc(-c2ccccc2)cc1)C[C@@H](O)C(=O)O)c1cc(-c2cccc(Cl)c2)[nH]n1 [Example 15-25, (2R,4R)-5-Biphenyl-4-yl-4-{[5-(3-chlorophenyl)-1H-pyrazole-3-carbonyl]-amino}-2-hydroxy-pentanoic acid] | ≥9.0 | – |
| O=C(N[C@H](Cc1ccc(-c2ccccc2)cc1)CC(O)C(=O)O)c1cc(-c2ccc(Cl)cc2)[nH]n1 (stereo partly drawn) [Example 15-40, (R)-5-Biphenyl-4-yl-4-{[5-(4-chlorophenyl)-1H-pyrazole-3-carbonyl]amino}-2-hydroxy-pentanoic acid] | – | 1.26 to 10 nM |
| O=C(N[C@H](Cc1ccc(-c2ccccc2)cc1)C[C@@H](O)C(=O)O)c1cc2n(n1)C[C@H](O)COc1ccccc1-2 [Example 16-4, (2R,4R)-5-Biphenyl-4-yl-2-hydroxy-4-[((S)-8-hydroxy-10-oxa-5,6-diaza-tricyclo[9.4.0.02,6]pentadeca-1(15),2,4,11,13-pentaene-4-carbonyl)-amino]-pentanoic acid] | – | 1.26 to 10 nM |
| CN(C)C(=O)c1cc(C(=O)N[C@H](Cc2ccc(-c3ccccc3)cc2Cl)C[C@@H](O)C(=O)O)[nH]n1 [Example 20-5, (2R,4R)-5-(3-Chloro-biphenyl-4-yl)-4-[(5-dimethylcarbamoyl-2H-pyrazole-3-carbonyl)-amino]-2-hydroxy-pentanoic acid] | ≥9.0 | – |
| CCCNC(=O)c1cc(C(=O)N[C@H](Cc2ccc(-c3ccccc3)cc2)CC(O)C(=O)O)[nH]n1 (stereo partly drawn) [Example 15-61, (R)-5-Biphenyl-4-yl-2-hydroxy-4-[(5-propylcarbamoyl-2H-pyrazole-3-carbonyl)-amino]pentanoic acid] | – | ≤ 1 nM |
| COCCN(C)C(=O)c1cc(C(=O)N[C@H](Cc2ccc(-c3ccccc3)cc2)C[C@H](O)C(=O)O)[nH]n1 [Example 3-C, (2S,4R)-5-Biphenyl-4-yl-2-hydroxy-4-({5-[(2-methoxyethyl)methylcarbamoyl]-2H-pyrazole-3-carbonyl}amino)pentanoic Acid] | – | 1.26 to 10 nM |
| O=C(NCCO)c1cc(C(=O)N[C@H](Cc2ccc(-c3ccccc3)cc2)CC(O)C(=O)O)[nH]n1 (stereo partly drawn) [Example 15-70, (R)-5-Biphenyl-4-yl-2-hydroxy-4-{[5-(2-hydroxy-ethylcarbamoyl)-2H-pyrazole-3-carbonyl]-amino}-pentanoic acid] | – | 1.26 to 10 nM |
| Cn1cc(-c2cc(C(=O)N[C@H](Cc3ccc(-c4ccccc4)cc3)C[C@@H](O)C(=O)O)on2)cn1 [Example 12-10, (2R,4R)-5-Biphenyl-4-yl-2-hydroxy-4-{[3-(1-methyl-1H-pyrazol-4-yl)-isoxazole-5-carbonyl]-amino}-pentanoic acid] | – | 1.26 to 10 nM |
| O=C(N[C@H](Cc1ccc(-c2cc(Cl)ccc2F)cc1)C[C@@H](O)C(=O)O)c1nn(-c2ccccc2)c(=O)[nH]1 [Example 19-20, (2R,4R)-5-(5′-Chloro-2′-fluoro-biphenyl-4-yl)-2-hydroxy-4-[(5-oxo-1-phenyl-4,5-dihydro-1H-[1,2,4]triazole-3-carbonyl)-amino]-pentanoic acid] | ≥9.0 | – |
| CCCCC(=O)Nc1cc(C(=O)N[C@H](Cc2ccc(-c3ccccc3)cc2)CC(O)C(=O)O)[nH]n1 (stereo partly drawn) [Example 15-92, (R)-5-Biphenyl-4-yl-2-hydroxy-4-[(5-pentanoylamino-2H-pyrazole-3-carbonyl)-amino]-pentanoic acid] | – | 12.6 to 100 nM |
| O=C(N[C@H](Cc1ccc(-c2ccccc2)cc1Cl)C[C@@H](O)C(=O)O)c1nn(-c2ccccc2)c(=O)[nH]1 [Example 20-4, (2R,4R)-5-(3-Chloro-biphenyl-4-yl)-2-hydroxy-4-[(5-oxo-1-phenyl-4,5-dihydro-1H-[1,2,4]triazole-3-carbonyl)-amino]-pentanoic acid] | ≥9.0 | – |
| O=C(N[C@H](Cc1ccc(-c2ccccc2)cc1)C[C@@H](O)C(=O)O)c1cc(-c2ccc(Cl)cc2)no1 [Example 12-4, (2R,4R)-5-Biphenyl-4-yl-4-{[3-(4-chlorophenyl)-isoxazole-5-carbonyl]-amino}-2-hydroxy-pentanoic acid] | ≥9.0 | – |
| COCc1cc(C(=O)N[C@H](Cc2ccc(-c3cccc(Cl)c3)cc2Cl)C[C@@H](O)C(=O)O)[nH]n1 [Example 21-2, (2R,4R)-5-(3,3′-Dichloro-biphenyl-4-yl)-2-hydroxy-4-[(5-methoxymethyl-2H-pyrazole-3-carbonyl)-amino]-pentanoic acid] | ≥9.0 | – |

More lines, now with the values ahead:

| pKi | Ki | SMILES |
| --- | --- | --- |
| – | 1.26 to 10 nM | COc1ccccc1-c1cc(C(=O)N[C@H](Cc2ccc(-c3ccccc3)cc2)C[C@@H](O)C(=O)O)no1 [Example 12-15, (2R,4R)-5-Biphenyl-4-yl-2-hydroxy-4-{[5-(2-methoxy-phenyl)-isoxazole-3-carbonyl]-amino}-pentanoic acid] |
| – | 12.6 to 100 nM | O=C(O)c1ccc(C(=O)N[C@H](Cc2ccc(-c3ccccc3)cc2)CC(O)C(=O)O)nn1 (stereo partly drawn) [Example 13-3, 6-((R)-1-Biphenyl-4-ylmethyl-3-carboxy-3-hydroxypropylcarbamoyl)-pyridazine-3-carboxylic acid] |
| – | 12.6 to 100 nM | O=C(N[C@H](Cc1ccc(-c2ccccc2)cc1)CC(O)C(=O)O)c1cc[nH]n1 (stereo partly drawn) [Example 15-1, (R)-5-Biphenyl-4-yl-2-hydroxy-4-[(1H-pyrazole-3-carbonyl)amino]pentanoic acid] |
| ≥9.0 | – | CN(C)C(=O)c1cc(C(=O)N[C@H](Cc2ccc(-c3ccccc3)cc2)C[C@@H](O)C(=O)O)[nH]n1 [Example 15-63, (2R,4R)-5-Biphenyl-4-yl-4-[(5-dimethylcarbamoyl-2H-pyrazole-3-carbonyl)-amino]-2-hydroxy-pentanoic acid] |
| ≥9.0 | – | O=C(N[C@H](Cc1ccc(-c2cc(Cl)ccc2Cl)cc1)C[C@@H](O)C(=O)O)c1cn(O)nn1 [Example 19-1, (2R,4R)-5-(2′,5′-Dichlorobiphenyl-4-yl)-2-hydroxy-4-[(1-hydroxy-1H-[1,2,3]triazole-4-carbonyl)-amino]-pentanoic acid] |
| – | 1.26 to 10 nM | O=C(N[C@H](Cc1ccc(-c2ccccc2)cc1)C[C@@H](O)C(=O)O)c1nc(Cl)n[nH]1 [Example 10-12, (2R,4R)-5-Biphenyl-4-yl-4-[(5-chloro-2H-[1,2,4]triazole-3-carbonyl)amino]-2-hydroxypentanoic acid] |
| ≥9.0 | – | Cc1ccc(Cl)cc1-c1ccc(C[C@H](C[C@@H](O)C(=O)O)NC(=O)c2cn(O)nn2)cc1 [Example 19-12, (2R,4R)-5-(5′-Chloro-2′-methyl-biphenyl-4-yl)-2-hydroxy-4-[(1-hydroxy-1H-[1,2,3]triazole-4-carbonyl)-amino]-pentanoic acid] |
| – | 1.26 to 10 nM | O=C(N[C@H](Cc1ccc(-c2ccccc2)cc1)C[C@@H](O)C(=O)O)c1cc(CO)[nH]n1 [Example 15-3, (2R,4R)-5-Biphenyl-4-yl-2-hydroxy-4-[(5-hydroxymethyl-1H-pyrazole-3-carbonyl)-amino]-pentanoic acid] |
| – | 1.26 to 10 nM | C[C@@H](O)c1cc(C(=O)N[C@H](Cc2ccc(-c3ccccc3)cc2)C[C@@H](O)C(=O)O)[nH]n1 [Example 15-110, (2R,4R)-5-Biphenyl-4-yl-2-hydroxy-4-{[5-((R)-1-hydroxyethyl)-2H-pyrazole-3-carbonyl]amino}pentanoic acid] |
| ≥9.0 | – | COc1ccccc1-c1ccc(C[C@H](C[C@@H](O)C(=O)O)NC(=O)c2cn(O)nn2)cc1 [Example 19-17, (2R,4R)-2-Hydroxy-4-[(1-hydroxy-1H-[1,2,3]triazole-4-carbonyl)-amino]-5-(2′-methoxy-biphenyl-4-yl)-pentanoic acid] |
